Results published in patent publication US11807693B2 (priority 2014, dated 2023).
Where two headings read alike, the source gives them in different places. Starred links: 1 amine or outer side, 2 acyl side, 3 side chain; linkers in the order of their positions; H or OH if unused. Non-standard residues stand in square brackets, D forms with d. Residues, ends and D or L forms follow the SMILES beside them. *: point of attachment. dBip = N[C@H](Cc1ccc(-c2ccccc2)cc1)C(=O)O; Oic = O=C(O)[C@@H]1C[C@@H]2CCCC[C@@H]2N1; Phe(4-Cl) = N[C@@H](Cc1ccc(Cl)cc1)C(=O)O; Phe(4-I) = N[C@@H](Cc1ccc(I)cc1)C(=O)O; γGlu = O=C(O)[C@H](CCC(=O)[*:2])N[*:1]; d(β3hF) = N[C@@H](CC(=O)O)Cc1ccccc1; Igl = N[C@H](C(=O)O)C1Cc2ccccc2C1; NMeR = CN[C@@H](CCCNC(=N)N)C(=O)O; Palmitoyl = CCCCCCCCCCCCCCCC(=O)*; Tridecanoyl = CCCCCCCCCCCCC(=O)*; hArg = N=C(N)NCCCC[C@H](N)C(=O)O; Tic = O=C(O)[C@@H]1Cc2ccccc2CN1; Cha = N[C@@H](CC1CCCCC1)C(=O)O; NMeL = CN[C@@H](CC(C)C)C(=O)O; β3hL = CC(C)C[C@H](N)CC(=O)O; β3hP = O=C(O)C[C@@H]1CCCN1; Pip = O=C(O)[C@@H]1CCCCN1; Nle = CCCC[C@H](N)C(=O)O; Orn = NCCC[C@H](N)C(=O)O; Dap = NC[C@H](N)C(=O)O; AEEA = NCCOCCOCC(=O)O

Key:
[1] = target: T1, rat APJ receptor (Rattus norvegicus, UniProt Q9JHG3); experiment: [35S] GTPγS assay, rat APJ receptor; format: biochemical
T1 construct: expressed in transfected cells
T1 sequence (Q9JHG3 1-377): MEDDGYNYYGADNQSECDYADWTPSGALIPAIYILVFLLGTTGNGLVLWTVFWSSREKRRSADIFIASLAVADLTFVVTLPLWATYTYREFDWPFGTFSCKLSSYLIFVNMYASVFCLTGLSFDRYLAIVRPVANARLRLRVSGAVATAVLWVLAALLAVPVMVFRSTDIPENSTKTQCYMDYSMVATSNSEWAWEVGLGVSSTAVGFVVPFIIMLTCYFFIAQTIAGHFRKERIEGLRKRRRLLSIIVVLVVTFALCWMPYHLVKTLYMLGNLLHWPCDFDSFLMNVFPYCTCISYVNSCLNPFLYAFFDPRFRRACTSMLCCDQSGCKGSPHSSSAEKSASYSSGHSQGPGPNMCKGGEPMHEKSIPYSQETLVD
Description: The membranes were incubated with modified peptides in the assay buffer. […] Bound [^35S] GTPγS was separated from free radiolabel by filtration. The filter bound radioactivity was determined by liquid scintillation counting.

[2] = target: T2, human APJ receptor (Homo sapiens, UniProt P35414); experiment: [35S] GTPγS assay, human APJ receptor; format: biochemical
T2 construct: expressed in transfected cells
T2 sequence (P35414 1-380): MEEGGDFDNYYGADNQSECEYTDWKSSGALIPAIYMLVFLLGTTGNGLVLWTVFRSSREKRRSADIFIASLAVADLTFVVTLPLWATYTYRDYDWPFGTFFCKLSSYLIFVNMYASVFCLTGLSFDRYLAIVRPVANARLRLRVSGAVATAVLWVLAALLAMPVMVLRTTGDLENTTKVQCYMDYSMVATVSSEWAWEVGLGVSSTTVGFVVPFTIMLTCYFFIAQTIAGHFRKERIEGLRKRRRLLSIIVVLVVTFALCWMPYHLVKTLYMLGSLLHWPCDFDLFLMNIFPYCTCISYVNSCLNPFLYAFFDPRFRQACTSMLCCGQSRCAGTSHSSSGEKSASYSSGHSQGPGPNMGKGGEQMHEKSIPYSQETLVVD

[3] = rat APJ receptor, read-out: EC50 Rat APJ Receptor
[4] = Table 16, read-out: EC50 Rat APJ Receptor

Row | SMILES | EC50 [1, 3] | EC50 ([2]; human APJ receptor) | EC50 [1, 4] | EC50 ([2]; Table 16)
1 | CCCCCCCCCCCCC(=O)N[C@@H](CCC(=O)NCCOCCOCC(=O)NCCOCCOCC(=O)N[C@@H](CCCCNC(=N)N)C(=O)N[C@H](CCCNC(=N)N)C(=O)N[C@@H](CCC(N)=O)C(=O)N[C@@H](CCCCNC(=N)N)C(=O)N1CCC[C@H]1C(=O)N[C@@H](CCCC)C(=O)N(C)[C@@H](CC(C)C)C(=O)N[C@@H](C)C(=O)N[C@@H](C)C(=O)N[C@@H](CCCCN)C(=O)NCC(=O)N1[C@H](C(=O)N[C@@H](Cc2ccc(I)cc2)C(=O)N2CCC[C@H]2C(=O)N[C@H](Cc2ccc(-c3ccccc3)cc2)C(=O)O)C[C@@H]2CCCC[C@@H]21)C(=O)O [compound 329] ({Tridecanoyl-γGlu-AEEA-AEEA}-[hArg][dR]Q[hArg]P[Nle][NMeL]AAKG[Oic][Phe(4-I)]P[dBip]-OH) | 36.2 nM | 37.6 nM |  | 
2 | CCCCCCCCCCCCC(=O)N[C@@H](CCC(=O)NCCOCCOCC(=O)NCCOCCOCC(=O)N[C@H](CCCNC(=N)N)C(=O)N[C@H](CCC(N)=O)C(=O)N[C@@H](CCCCNC(=N)N)C(=O)N1CCC[C@H]1C(=O)N[C@@H](CCCCNC(=N)N)C(=O)N[C@@H](CC1CCCCC1)C(=O)N[C@@H](CO)C(=O)N[C@@H](Cc1c[nH]cn1)C(=O)N[C@@H](CCCCN)C(=O)NCC(=O)N1[C@H](C(=O)N[C@@H](CCCC)C(=O)N2CCC[C@H]2C(=O)N[C@@H](Cc2ccc(Cl)cc2)C(=O)O)C[C@@H]2CCCC[C@@H]21)C(=O)O [compound 481] ({Tridecanoyl-γGlu-AEEA-AEEA}-[dR][dQ][hArg]P[hArg][Cha]SHKG[Oic][Nle]P[Phe(4-Cl)]-OH) |  |  | 0.341 nM | 0.177 nM
3 | CC(=O)N[C@@H](CCCCNC(=N)N)C(=O)N[C@H](CCCNC(=N)N)C(=O)N[C@@H](CCC(N)=O)C(=O)N[C@@H](CCC(=O)O)C(=O)N1CCC[C@H]1C(=O)N[C@H](CCCNC(=N)N)C(=O)N(C)[C@@H](CC(C)C)C(=O)N[C@@H](CO)C(=O)N[C@@H](Cc1c[nH]cn1)C(=O)N[C@@H](CCCCN)C(=O)NCC(=O)N1[C@H](C(=O)N[C@@H](Cc2ccc(I)cc2)C(=O)N2CCC[C@H]2C(=O)N[C@H](Cc2ccc(-c3ccccc3)cc2)C(=O)O)C[C@@H]2CCCC[C@@H]21 [compound 77] (Ac-[hArg][dR]QEP[dR][NMeL]SHKG[Oic][Phe(4-I)]P[dBip]-OH) | 2.85 nM | 4.92 nM |  | 
4 | CC(=O)N[C@@H](CCCCNC(=N)N)C(=O)N[C@H](CCCNC(=N)N)C(=O)N[C@@H](CCC(N)=O)C(=O)N[C@@H](CCCCNC(=N)N)C(=O)N1CCC[C@H]1C(=O)N[C@H](CCCNC(=N)N)C(=O)N(C)[C@@H](CC(C)C)C(=O)N[C@@H](CO)C(=O)N[C@@H](Cc1c[nH]cn1)C(=O)N[C@@H](CCCCN)C(=O)NCC(=O)N[C@@H](CCC(=O)O)C(=O)N[C@@H](Cc1ccc(I)cc1)C(=O)N1CCC[C@H]1C(=O)N[C@H](Cc1ccc(-c2ccccc2)cc1)C(=O)O [compound 85] (Ac-[hArg][dR]Q[hArg]P[dR][NMeL]SHKGE[Phe(4-I)]P[dBip]-OH) | > 4170 nM | > 4170 nM |  | 
5 | CCCCCCCCCCCCCCCC(=O)N[C@@H](CCC(=O)NCCOCCOCC(=O)NCCOCCOCC(=O)N[C@H](CCC(N)=O)C(=O)N[C@@H](CCCNC(=N)N)C(=O)N1CCC[C@H]1C(=O)N(C)[C@@H](CCCNC(=N)N)C(=O)N[C@@H](CC1CCCCC1)C(=O)N[C@@H](CO)C(=O)N[C@@H](Cc1c[nH]cn1)C(=O)N[C@H](C(=O)NCC(=O)N1[C@H](C(=O)N[C@@H](CCCC)C(=O)N2CCC[C@H]2CC(=O)N[C@@H](CC(=O)O)Cc2ccccc2)C[C@@H]2CCCC[C@@H]21)C1Cc2ccccc2C1)C(=O)O [compound 625] ({Palmitoyl-γGlu-AEEA-AEEA}-[dQ]RP[NMeR][Cha]SH[Igl]G[Oic][Nle][β3hP][d(β3hF)]-OH) | 20.1 nM | 11.1 nM |  | 
6 | CCCCCCCCCCCCCCCC(=O)N[C@@H](CCC(=O)NCCOCCOCC(=O)NCCOCCOCC(=O)N[C@H](CCC(N)=O)C(=O)N[C@@H](CCCNC(=N)N)C(=O)N1CCC[C@H]1C(=O)N(C)[C@@H](CCCNC(=N)N)C(=O)N[C@@H](CC1CCCCC1)C(=O)N[C@@H](CO)C(=O)N[C@@H](Cc1c[nH]cn1)C(=O)N[C@@H](CCCN)C(=O)NCC(=O)N1[C@H](C(=O)N[C@@H](CCCC)C(=O)N2CCC[C@H]2CC(=O)N[C@@H](CC(=O)O)Cc2ccccc2)C[C@@H]2CCCC[C@@H]21)C(=O)O [compound 618] ({Palmitoyl-γGlu-AEEA-AEEA}-[dQ]RP[NMeR][Cha]SH[Orn]G[Oic][Nle][β3hP][d(β3hF)]-OH) | 11.1 nM | 2.47 nM |  | 
7 | CCCCCCCCCCCCC(=O)N[C@@H](CCC(=O)NCCOCCOCC(=O)NCCOCCOCC(=O)N[C@H](CC(=O)N[C@@H](CCCNC(=N)N)C(=O)N1CCC[C@H]1C(=O)N(C)[C@@H](CCCNC(=N)N)C(=O)N[C@@H](CC(C)C)C(=O)N[C@@H](CO)C(=O)N[C@@H](Cc1c[nH]cn1)C(=O)N[C@@H](CCCCN)C(=O)NCC(=O)N1CCC[C@H]1C(=O)N[C@@H](CCCC)C(=O)N1CCC[C@H]1C(=O)N[C@@H](Cc1ccc(Cl)cc1)C(=O)O)CC(C)C)C(=O)O [compound 421] ({Tridecanoyl-γGlu-AEEA-AEEA}-[β3hL]RP[NMeR]LSHKGP[Nle]P[Phe(4-Cl)]-OH) | 0.286 nM | 0.0934 nM |  | 
8 | CCCCCCCCCCCCCCCC(=O)N[C@@H](CCC(=O)NCCOCCOCC(=O)NCCOCCOCC(=O)N[C@H](CCC(N)=O)C(=O)N[C@@H](CCCNC(=N)N)C(=O)N1CCC[C@H]1C(=O)N(C)[C@@H](CCCNC(=N)N)C(=O)N[C@@H](CC1CCCCC1)C(=O)N[C@@H](CO)C(=O)N[C@@H](CN)C(=O)N[C@@H](CCCCN)C(=O)NCC(=O)N1[C@H](C(=O)N[C@@H](CCCC)C(=O)N2CCC[C@H]2CC(=O)N[C@@H](CC(=O)O)Cc2ccccc2)C[C@@H]2CCCC[C@@H]21)C(=O)O [compound 616] ({Palmitoyl-γGlu-AEEA-AEEA}-[dQ]RP[NMeR][Cha]S[Dap]KG[Oic][Nle][β3hP][d(β3hF)]-OH) | 17.2 nM | 2.75 nM |  | 
9 | CCCCCCCCCCCCC(=O)N[C@@H](CCC(=O)NCCOCCOCC(=O)NCCOCCOCC(=O)N[C@@H](CCC(N)=O)C(=O)N[C@@H](CCCNC(=N)N)C(=O)N1CCC[C@H]1C(=O)N1CCC[C@H]1C(=O)N[C@@H](CC(C)C)C(=O)N[C@@H](CO)C(=O)N[C@@H](Cc1c[nH]cn1)C(=O)N[C@@H](CCCCN)C(=O)NCC(=O)N1CCC[C@H]1C(=O)N[C@@H](CCCC)C(=O)N1CCC[C@H]1C(=O)N[C@@H](Cc1ccc(Cl)cc1)C(=O)O)C(=O)O [compound 427] ({Tridecanoyl-γGlu-AEEA-AEEA}-QRPPLSHKGP[Nle]P[Phe(4-Cl)]-OH) |  |  | 0.313 nM | 0.171 nM
10 | CCCCCCCCCCCCCCCC(=O)N[C@@H](CCC(=O)NCCOCCOCC(=O)NCCOCCOCC(=O)N[C@H](CCC(N)=O)C(=O)N[C@@H](CCCNC(=N)N)C(=O)N1CCC[C@H]1C(=O)N(C)[C@@H](CCCNC(=N)N)C(=O)N[C@@H](CC1CCCCC1)C(=O)N[C@@H](CO)C(=O)N[C@@H](Cc1c[nH]cn1)C(=O)N[C@@H](CCCCN)C(=O)NCC(=O)N1CCCC[C@H]1C(=O)N[C@@H](CCCC)C(=O)N1CCC[C@H]1C(=O)N1Cc2ccccc2C[C@H]1C(=O)O)C(=O)O [compound 598] ({Palmitoyl-γGlu-AEEA-AEEA}-[dQ]RP[NMeR][Cha]SHKG[Pip][Nle]P[Tic]-OH) | 2.85 nM | 0.463 nM |  | 
